This note sets out measurements from patent publication US8530490B2, “Uracil compound or salt thereof having human deoxyuridine triphosphatase inhibitory activity” (Taiho Pharmaceutical Co., Ltd., priority 2008, dated 2013).

The experiment concerns the target human dUTPase (Homo sapiens (Human), UniProt P33316). Description: Human dUTPase inhibitory effect: production of [5-3H]dUMP from [5-3H]dUTP, measured by HPLC with flow scintillation. The class given is biochemical. To be noted: [5-3H]dUMP production from [5-3H]dUTP, 37° C., 15 minutes. As to the method: The inhibitory activity of the compound of the present invention against human dUTPase was determined by measuring the production of [5-^3H]deoxyuridine monophosphate (hereinafter, referred to as [5-^3H]dUMP) from [5-^3H]deoxyuridine triphosphate (hereinafter, referred to as [5-^3H]dUTP) according to a method shown below.
Specifically, 0.2 mL in total of a solution containing 0.02 mL of 1 μM dUTP (including 588 Bq/mL [5-3H]dUTP), 0.05 mL of a 0.2 M Tris buffer solution (pH 7.4), 0.05 mL of 16 mM magnesium chloride, 0.02 mL of 20 mM 2-mercaptoethanol, 0.02 mL of a 1% aqueous solution of fetal bovine serum-derived albumin, 0.02 mL of varying concentrations of test compound solutions or pure water as a control, and 0.02 mL of a solution of human dUTPase (expressed using E. coli and purified) was reacted at 37° C. for 15 minutes. Immediately after the reaction, the solution was heated at 100° C. for 1 minute to terminate the reaction, followed by centrifugation at 15000 rpm for 2 minutes. An aliquot (150 μL) of the supernatant thus obtained by centrifugation was analyzed using an Atlantis dC18 column (manufactured by Waters Corp., 4.6×250 mm) and a high-performance liquid chromatograph (manufactured by Shimadzu Corp., Prominence). Elution was performed at a flow rate of 0.8 mL/min for 30 minutes by a concentration gradient from a 4:6 mixed solution of a mobile phase A (10 mM potassium dihydrogen phosphate (pH 6.7), 10 mM tetrabutylammonium, and 0.25% methanol) and a mobile phase B (50 mM potassium dihydrogen phosphate (pH 6.7), 5.6 mM tetrabutylammonium, and 30% methanol) to the mobile phase B. The eluate was mixed with a scintillator (manufactured by PerkinElmer Co., Ltd., Ultima-Flo AP) at a 1:2 ratio, and the radioactivity of the produced [5-^3H]dUMP (RT 10.2 min) was measured using Radiomatic Flow Scintillation Analyzer (manufactured by PerkinElmer Co., Ltd., 525TR).
The inhibitory activity of the test compound was determined according to the formula shown below.

Usually IC50 stands for the midpoint of a concentration-inhibition curve. A high value points to weaker potency.

human dUTPase, sequence (P33316 94-252): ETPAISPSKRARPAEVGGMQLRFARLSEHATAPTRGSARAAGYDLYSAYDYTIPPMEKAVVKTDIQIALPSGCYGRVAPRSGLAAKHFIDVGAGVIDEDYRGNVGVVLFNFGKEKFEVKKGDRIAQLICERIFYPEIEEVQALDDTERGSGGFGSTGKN

For the molecule `O=c1ccn(COCCOC(c2ccccc2)(c2ccccc2)c2ccccc2)c(=O)[nH]1` [Comparative Example 1, reference compound], the half-maximal inhibitory concentration (IC50) is 185000 nM. As to `CN(C(CCn1ccc(=O)[nH]c1=O)C(=O)NO)S(=O)(=O)c1ccc(Oc2ccccc2)cc1` (stereo not shown) [Comparative Example 2, 4-(2,4-Dioxo-3,4-dihydropyrimidin-1(2H)-yl)-N-hydroxy-2-(N-methyl-4-phenoxyphenylsulfonamide)butanamide, reference compound], 97200 nM corresponded to half-maximal inhibition (IC50). In the case of `O=c1ccn(COCCCS(=O)(=O)NCc2cccc(OCC3CC3)c2)c(=O)[nH]1` [Example 1, N-(3-(cyclopropylmethoxy)benzyl)-3-((2,4-dioxo-3,4-dihydropyrimidin-1(2H)-yl)methoxy)propane-1-sulfonamide], the concentration for half-maximal inhibition (IC50) worked out at 330 nM.

Molecule `C[C@@H](NS(=O)(=O)CCCOCn1ccc(=O)[nH]c1=O)c1cccc(OCC(C)(C)O)c1` [Example 2, (R)-3-((2,4-dioxo-3,4-dihydropyrimidin-1(2H)-yl)methoxy)-N-(1-(3-(2-hydroxy-2-methylpropoxy)phenyl)ethyl)propane-1-sulfonamide] gave an IC50 of 1870 nM.

In turn, `CC[C@@](O)(CNS(=O)(=O)CCCOCn1ccc(=O)[nH]c1=O)c1ccc(F)c(OC2CCCC2)c1` [Example 3, (S)—N-(2-(3-(cyclopentyloxy)-4-fluorophenyl)-2-hydroxybutyl)-3-((2,4-dioxo-3,4-dihydropyrimidin-1(2H)-yl)methoxy)propane-1-sulfonamide] showed an IC50 of 870 nM. Regarding `O=c1ccn(COCCCS(=O)(=O)NCc2cccc(OC3CCC3)c2)c(=O)[nH]1` [Example 4, N-(3-cyclobutoxybenzyl)-3-((2,4-dioxo-3,4-dihydropyrimidin-1(2H)-yl)methoxy)propane-1-sulfonamide], the IC50 stood at 610 nM. With `C[C@@H](NS(=O)(=O)CCCOCn1ccc(=O)[nH]c1=O)c1cccc(OC2CCCC2)c1` [Example 5, (R)—N-(1-(3-(cyclopentyloxy)phenyl)ethyl)-3-((2,4-dioxo-3,4-dihydropyrimidin-1(2H)-yl)methoxy)propane-1-sulfonamide] the figure was 60 nM; with `C[C@@H](NS(=O)(=O)CCCOCn1ccc(=O)[nH]c1=O)c1cccc(O[C@@H]2CCOC2)c1` [Example 6, 3-((2,4-dioxo-3,4-dihydropyrimidin-1(2H)-yl)methoxy)-N—((R)-1-(3-((R)-tetrahydrofuran-3-yloxy)phenyl)ethyl)propane-1-sulfonamide], 460 nM. With `O=c1ccn(COCCCS(=O)(=O)NCc2ccc(F)c(OCC3CC3)c2)c(=O)[nH]1` [Example 7, N-(3-(cyclopropylmethoxy)-4-fluorobenzyl)-3-((2,4-dioxo-3,4-dihydropyrimidin-1(2H)-yl)methoxy)propane-1-sulfonamide] the figure was 640 nM. As for `C[C@@H](NS(=O)(=O)CCCOCn1ccc(=O)[nH]c1=O)c1ccc(F)c(OCC2CC2)c1` [Example 8, (R)—N-(1-(3-(cyclopropylmethoxy)-4-fluorophenyl)ethyl)-3-((2,4-dioxo-3,4-dihydropyrimidin-1(2H)-yl)methoxy)propane-1-sulfonamide], the midpoint of inhibition, the IC50, lay at 90 nM. The molecule `CC(C)[C@@H](NS(=O)(=O)CCCOCn1ccc(=O)[nH]c1=O)c1ccc(F)c(OCC2CC2)c1` [Example 9, (R)—N-(1-(3-(cyclopropylmethoxy)-4-fluorophenyl)-2-methylpropyl)-3-((2,4-dioxo-3,4-dihydropyrimidin-1(2H)-yl)methoxy)propane-1-sulfonamide] showed a 50% inhibitory concentration (IC50) of 40 nM. Consider `O=c1ccn(COCCCS(=O)(=O)NC(c2ccccc2)c2cccc(OCC3CC3)c2)c(=O)[nH]1` (stereo not shown) [Example 10, N-((3-(cyclopropylmethoxy)phenyl)(phenyl)methyl)-3-((2,4-dioxo-3,4-dihydropyrimidin-1(2H)-yl)methoxy)propane-1-sulfonamide], for which the IC50 was determined as 160 nM. With `CC(NS(=O)(=O)CCCOCn1ccc(=O)[nH]c1=O)c1cccc(OCC2CC2)c1` (stereo not shown) [Example 11, N-(1-(3-(cyclopropylmethoxy)phenyl)ethyl)-3-((2,4-dioxo-3,4-dihydropyrimidin-1(2H)-yl)methoxy)propane-1-sulfonamide] the figure was 490 nM; with `O=c1ccn(COCCCS(=O)(=O)NCc2cccc(SCC3CC3)c2)c(=O)[nH]1` [Example 12, N-(3-(cyclopropylmethylthio)benzyl)-3-((2,4-dioxo-3,4-dihydropyrimidin-1(2H)-yl)methoxy)propane-1-sulfonamide], 2830 nM. The molecule `C[C@@H](NS(=O)(=O)CCCOCn1ccc(=O)[nH]c1=O)c1cccc(OC2CC2)c1` [Example 13, (R)—N-(1-(3-cyclopropoxyphenyl)ethyl)-3-((2,4-dioxo-3,4-dihydropyrimidin-1(2H)-yl)methoxy)propane-1-sulfonamide] came in with an IC50 of 330 nM. `CCC(CC)(NS(=O)(=O)CCCOCn1ccc(=O)[nH]c1=O)c1cccc(OCC2CC2)c1` [Example 14, N-(3-(3-(cyclopropylmethoxy)phenyl)pentan-3-yl)-3-((2,4-dioxo-3,4-dihydropyrimidin-1(2H)-yl)methoxy)propane-1-sulfonamide]: the IC50 was 210 nM. The same measure for `O=c1ccn(COCCCS(=O)(=O)NC(c2ccccc2)c2cccc(OC(F)(F)C(F)F)c2)c(=O)[nH]1` (stereo not shown) [Example 15, 3-((2,4-dioxo-3,4-dihydropyrimidin-1(2H)-yl)methoxy)-N-(phenyl(3-(1,1,2,2-tetrafluoroethoxy)phenyl)methyl)propane-1-sulfonamide]: 940 nM; for `CC(C)COc1cccc(C(NS(=O)(=O)CCCOCn2ccc(=O)[nH]c2=O)c2ccccc2)c1` (stereo not shown) [Example 16, 3-((2,4-dioxo-3,4-dihydropyrimidin-1(2H)-yl)methoxy)-N-((3-isobutoxyphenyl)(phenyl)methyl)propane-1-sulfonamide]: 600 nM; for `O=c1ccn(COCCCS(=O)(=O)NC(c2cccc(OCC3CC3)c2)c2cccc(OCC3CC3)c2)c(=O)[nH]1` [Example 17, N-(bis(3-(cyclopropylmethoxy)phenyl)methyl)-3-((2,4-dioxo-3,4-dihydropyrimidin-1(2H)-yl)methoxy)propane-1-sulfonamide]: 210 nM. With `CC[C@H](C)COc1cccc(C(NS(=O)(=O)CCCOCn2ccc(=O)[nH]c2=O)c2ccccc2)c1` (stereo partly drawn) [Example 18, 3-((2,4-dioxo-3,4-dihydropyrimidin-1(2H)-yl)methoxy)-N-((3-((S)-2-methylbutoxy)phenyl) (phenyl)methyl)propane-1-sulfonamide] the figure was 1650 nM; with `O=c1ccn(COCCCS(=O)(=O)NC(c2ccc(F)cc2)c2ccc(F)c(OCC3CC3)c2)c(=O)[nH]1` (stereo not shown) [Example 19, N-((3-(cyclopropylmethoxy)-4-fluorophenyl)(4-fluorophenyl)methyl)-3-((2,4-dioxo-3,4-dihydropyrimidin-1(2H)-yl)methoxy)propane-1-sulfonamide], 240 nM; with `CCC(CC)(NS(=O)(=O)CCCOCn1ccc(=O)[nH]c1=O)c1ccc(F)c(OCC2CC2)c1` [Example 20, N-(3-(3-(cyclopropylmethoxy)-4-fluorophenyl)pentan-3-yl)-3-((2,4-dioxo-3,4-dihydropyrimidin-1(2H)-yl)methoxy)propane-1-sulfonamide], 190 nM.
